The test system of one series is A549 cells. As to the kind of experiment: MTT cytotoxicity assay, A549. Format: cell-based. The following applies: Homo sapiens, A549, 48 h, read-out: Cytotoxic IC50 A549. On the technique in general: Tetrazolium assays rely on reduction of a dye to a coloured formazan, in cell work by metabolically active cells.
A further series relates to MCF-7 cells. As to the kind of experiment: MTT cytotoxicity assay, MCF-7. Format: cell-based. The settings on record: Homo sapiens, MCF7, 48 h, read-out: Cytotoxic IC50 MCF-7.
For series [1], the system named is HepG2 cells. As to the kind of experiment: MTT cytotoxicity assay, HepG2. Format: cell-based. The following applies: Homo sapiens, HepG2, 48 h, read-out: Cytotoxic IC50 HepG2.
Description: (§3) Using RPMI-1640 medium L-Glutamine (Lonza Verviers SPRL, Belgium, cat#12-604F), we successfully cultured liver (HepG2), breast (MCF-7), and lung (A549) cells bought from the National Research Institute, Egypt. Each culture was supplemented with 10% foetal bovine serum (FBS, Sigma-Aldrich, MO, USA) and 1% penicillin-streptomycin (Lonza, Belgium). Using a 96-well plate, cells were seeded at a density of 5,000 cells per well in triplicate. The chemicals were added to the cells on day 2 at doses of (0.01, 0.1, 1, 10, and 100 M). To determine cell viability, MTT solution was used after 48 h (Promega, USA)[84]. Using GraphPad Prism 7, as was previously reported in, we computed the survival rate in comparison to the control and obtained the IC50 values[85].
In a further series the target is T1, Topoisomerase II (Homo sapiens, UniProt P11388).
T1 construct: purchased TopoGEN, Inc., Columbus
T1 sequence (P11388 whole entry): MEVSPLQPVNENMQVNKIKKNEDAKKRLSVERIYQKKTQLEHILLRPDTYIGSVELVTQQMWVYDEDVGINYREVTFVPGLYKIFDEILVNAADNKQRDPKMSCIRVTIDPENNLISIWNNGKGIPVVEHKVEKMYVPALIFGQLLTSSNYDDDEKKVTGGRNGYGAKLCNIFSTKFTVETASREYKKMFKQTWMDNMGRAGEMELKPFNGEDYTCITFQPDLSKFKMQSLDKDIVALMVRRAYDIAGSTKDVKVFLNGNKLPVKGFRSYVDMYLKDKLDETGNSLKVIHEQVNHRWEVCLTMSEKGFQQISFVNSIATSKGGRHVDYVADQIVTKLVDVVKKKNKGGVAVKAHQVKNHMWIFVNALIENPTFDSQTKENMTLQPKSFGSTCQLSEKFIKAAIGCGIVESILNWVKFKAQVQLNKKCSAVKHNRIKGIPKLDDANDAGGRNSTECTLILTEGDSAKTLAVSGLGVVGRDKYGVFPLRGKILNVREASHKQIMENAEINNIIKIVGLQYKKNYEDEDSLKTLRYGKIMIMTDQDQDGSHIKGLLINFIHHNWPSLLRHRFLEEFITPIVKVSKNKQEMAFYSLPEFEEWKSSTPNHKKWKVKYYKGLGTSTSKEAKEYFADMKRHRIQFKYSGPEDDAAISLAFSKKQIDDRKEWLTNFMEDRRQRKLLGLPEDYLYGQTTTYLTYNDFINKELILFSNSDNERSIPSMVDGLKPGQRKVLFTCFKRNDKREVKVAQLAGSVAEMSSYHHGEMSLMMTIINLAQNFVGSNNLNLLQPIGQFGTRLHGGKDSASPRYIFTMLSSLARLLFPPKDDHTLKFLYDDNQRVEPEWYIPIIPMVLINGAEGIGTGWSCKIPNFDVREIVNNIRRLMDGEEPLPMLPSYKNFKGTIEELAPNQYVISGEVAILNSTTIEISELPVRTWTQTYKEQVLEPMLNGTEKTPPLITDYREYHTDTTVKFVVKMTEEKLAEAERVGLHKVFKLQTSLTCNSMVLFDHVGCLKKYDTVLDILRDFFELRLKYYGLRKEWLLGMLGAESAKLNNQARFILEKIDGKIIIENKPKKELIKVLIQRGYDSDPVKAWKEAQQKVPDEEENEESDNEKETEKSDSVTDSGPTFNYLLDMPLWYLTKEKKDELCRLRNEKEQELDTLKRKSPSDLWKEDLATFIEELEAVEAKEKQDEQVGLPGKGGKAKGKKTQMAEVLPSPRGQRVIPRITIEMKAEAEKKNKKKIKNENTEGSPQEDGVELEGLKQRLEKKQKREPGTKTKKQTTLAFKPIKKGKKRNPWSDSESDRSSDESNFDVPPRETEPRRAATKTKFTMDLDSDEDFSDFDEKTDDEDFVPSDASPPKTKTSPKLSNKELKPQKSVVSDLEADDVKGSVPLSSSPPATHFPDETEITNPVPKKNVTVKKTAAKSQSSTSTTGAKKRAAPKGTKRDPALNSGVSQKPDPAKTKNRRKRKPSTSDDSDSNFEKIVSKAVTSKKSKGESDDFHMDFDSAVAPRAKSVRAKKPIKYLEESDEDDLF
Description: Topoisomerase II inhibition assay. Format: biochemical. The following applies: average of three independent replicates, five concentrations. On the procedure: (§1) Topoisomerase II (TopoGEN, Inc., Columbus) and DNA intercalator (methyl green (20 mg) and Calfthymus DNA (10 mg) were tested for their capacity to block the enzyme’s activity. Following equation was used to determine compound inhibition percentages: 100−[A control/A treated−Control)], IC50 was determined using GraphPad prism7 using inhibition curves at five different concentrations of each compound[86].

The test system of another series is Casp-3. As to the kind of experiment: RT-PCR gene expression, Casp-3. The series is classed as cell-based. The following applies: HepG2 cells, IC50, 48 h; normalized to β-actin; untreated = 1. On the procedure: (§2) The gene expression of P53, Bax, Caspasses-3,8,9 as proapoptotic genes and Bcl-2 as an anti-apoptotic gene were evaluated to investigate the apoptotic pathway. […] Afterwards, the standard operating procedure called for an RT-PCR reaction to be performed. The Ct values were then used to determine the relative expression of each gene in each sample, normalised to the β-actin as house-keeping gene[90–92].

The next series relates to P53. As to the kind of experiment: RT-PCR gene expression, P53. Format: cell-based. The settings on record: HepG2 cells, IC50, 48 h; normalized to β-actin; untreated = 1. On the procedure:
as §2

For series [2], the system named is HepG2 cells. Description: Annexin V/PI staining flow cytometry (apoptosis). Format: cell-based. The following applies: IC50 concentration, 48 h. On the procedure: After incubation overnight, 6-well culture plates were populated with HepG2 cells (3–5 10^5 cells/well). […] Cells and medium supernatants were then collected and washed in ice-cold PBS. The next step was suspending the cells in 100 µL of annexin binding buffer solution "25 mM CaCl2, 1.4 M NaCl, and 0.1 M Hepes/NaOH, pH 7.4” and incubation with “Annexin V-FITC solution (1:100) and propidium iodide (PI)” at a concentration equals 10 µg/mL in the dark for 30 min. The Cytoflex FACS system was then used to acquire the stained cells. cytExpert was used for the statistical analysis.
In general terms: A flow cytometer gives signals particle by particle.

For the next series, the system named is Casp-8. As to the kind of experiment: RT-PCR gene expression, Casp-8. The settings on record: HepG2 cells, IC50, 48 h; normalized to β-actin; untreated = 1. Format: cell-based. On the procedure: as §2
In a further series the test system is Bcl-2. Description: RT-PCR gene expression, Bcl-2. The settings on record: HepG2 cells, IC50, 48 h; normalized to β-actin; untreated = 1. Format: cell-based. On the procedure: as §2
In a further series the test system is Bax. As to the kind of experiment: RT-PCR gene expression, Bax. The series is classed as cell-based. The settings on record: HepG2 cells, IC50, 48 h; normalized to β-actin; untreated = 1. On the procedure:
as §2

The test system of another series is Casp-9. Description: RT-PCR gene expression, Casp-9. The series is classed as cell-based. The following applies: HepG2 cells, IC50, 48 h; normalized to β-actin; untreated = 1. On the procedure:
as §2

The next series relates to Calfthymus DNA. Description: DNA intercalation assay (DNA/methyl green). The series is classed as binding, calf. The following applies: average of three independent replicates, five concentrations. On the procedure: as §1
For series [3], the system named is HepG2 cells. As to the kind of experiment: DNA content flow cytometry cell cycle analysis. Format: cell-based. The following applies: IC50 concentration, 48 h, control 39.15%.
A short description of series [4]: MTT cytotoxicity assay, A549. Format: cell-based. The following applies: human, A549 lung cells, read-out: Cytotoxic IC50 A549.
Description: as §3
Series [5] is described as follows: MTT cytotoxicity assay, MCF-7. Format: cell-based. The settings on record: human, MCF-7 breast cells, read-out: Cytotoxic IC50 MCF-7.
Description: as §3
Series [6] in a line: MTT cytotoxicity assay, HepG2. Format: cell-based. The settings on record: human, HepG2 liver cells, read-out: Cytotoxic IC50 HepG2.
Description: as §3

This is an account of results in publication PMC9848385, “Design, synthesis, molecular modelling and antitumor evaluation of S-glucosylated rhodanines through topo II inhibition and DNA intercalation” (Journal of Enzyme Inhibition and Medicinal Chemistry, 2023).

For orientation: IC50 means the concentration that inhibits the measured activity by half. What is called melting point is the temperature, or range, at which the solid turns liquid.

Where “and” joins values, the source holds several entries; their conditions need not be identical. Equal entries are not always repeated.

Description for A549 cells: as §3
Description for MCF-7 cells: as §3

For the compound `O=C1NC(=S)S/C1=C\c1ccc(Cl)cc1Cl` [Compound 3b, 5-((Z)-2,4-dichlorobenzylidene)-2-thioxo-4-thiazolidinone], the values for the half-maximal inhibitory concentration (IC50) with A549 cells, in the series with MCF-7 cells and with HepG2 cells [1] were 9.7 µM, 17.9 µM and 7.8 µM, respectively.

With `O=C1NC(=S)S/C1=C\c1ccc2c(c1)OCCO2` [Compound 3c, 5-((Z)-3,4-ethylenedioxybenzylidene)-2-thioxo-4-thiazolidinone], the melting point is 208 to 210 °C. Besides, the IC50 in the series with A549 cells came to 13.7 µM. Moreover, the half-inhibitory concentration (IC50) in the series with MCF-7 cells was 7.1 µM. Further, the IC50 in the series on HepG2 cells [1] amounted to 11.7 µM.

For the compound `COc1ccc(/C=C2\SC(=S)NC2=O)cc1` [Compound 3d, 5-((Z)-4-methoxybenzylidene)-2-thioxo-4-thiazolidinone], the IC50 in the series with A549 cells came out at 7.8 µM; in the series with MCF-7 cells, 15.1 µM; in the series with HepG2 cells [1], 18.1 µM.

In turn, `COc1cccc(/C=C2\SC(=S)NC2=O)c1O` [Compound 3e] displayed a melting point of 199 to 201 °C. In addition, the concentration for half-maximal inhibition (IC50) with A549 cells stood at 7.7 µM. Further, in the series with MCF-7 cells, the 50% inhibitory concentration (IC50) came out at 3.1 µM. Further, the 50% inhibitory concentration (IC50) in the series on HepG2 cells [1] turned out to be 16.3 µM.

As to `O=C1NC(=S)S/C1=C\c1ccc2c(c1)OCO2` [Compound 3f, 5-((Z)-3,4-methylenedioxybenzylidene)-2-thioxo-4-thiazolidinone], the results for the IC50 in the series with A549 cells, in the series with MCF-7 cells and in the series on HepG2 cells [1] were 21.1 µM, 12.8 µM and 8.9 µM, respectively.

For the compound `CC(=O)OC[C@H]1O[C@@H](N2C(=O)CSC2=S)[C@H](OC(C)=O)[C@@H](OC(C)=O)[C@@H]1OC(C)=O` [Compound 6, 3-(2',3',4',6'-Tetra-O-acetyl-β-D-glucopyranosyl)-2-thioxo-4-thiazolidinone], the IC50 on Topoisomerase II was determined as 6.9 µM; in the series with A549 cells, 1.7 µM; in the series with MCF-7 cells, 11.7 µM; in the series with Calfthymus DNA, 19.6 µM; in the series with HepG2 cells [1] it was 0.21 µM. Moreover, the “Fold Change = 2^-ΔΔCT Casp-3” value in the series on Casp-3 is 8.3 fold and 8.3 ± 0.37 fold. Also, the “Fold Change = 2^-ΔΔCT P53” value in the series on P53 is 6.16 fold and 6.16 ± 0.69 fold. The “Activation of apoptotic cell death versus untreated control” value with HepG2 cells [2] is on record as 80.7 fold. Besides, the “Early apoptosis (AV+/PI-)” value in the series with HepG2 cells [2] was 23.07%. Moreover, the “Late apoptosis (AV+/PI+)” value with HepG2 cells [2] worked out at 11.66%. For the same compound, the Total apoptosis in the series with HepG2 cells [2] (untreated control 0.43%) is recorded as 34.73%. Besides, the “Fold Change = 2^-ΔΔCT Casp-8” value with Casp-8 was 3.29 fold and 3.29 ± 0.5 fold. Also, the “Fold Change = 2^-ΔΔCT Bcl-2” value in the series with Bcl-2 is 0.36 fold and 0.36 ± 0.01 fold. For the same compound, the “Fold Change = 2^-ΔΔCT Bax” value with Bax is 5.7 fold and 5.7 ± 0.26 fold. In addition, in the series with Casp-9, the “Fold Change = 2^-ΔΔCT Casp-9” value was 6.14 fold and 6.14 ± 0.19 fold. Besides, the “Cell population at S-phase” value in the series with HepG2 cells [3] is listed as 49.6%.

In the case of `CC(=O)OC[C@H]1O[C@@H](SC2=NC(=O)CS2)[C@H](OC(C)=O)[C@@H](OC(C)=O)[C@@H]1OC(C)=O` [Compound 7], the half-inhibitory concentration (IC50) at Topoisomerase II is 9.1 µM; in the series on Calfthymus DNA, 29.6 µM. Also, the half-maximal inhibitory concentration (IC50) at 48 h in [4] turned out to be 0.31 µM; in series [5], 12.4 µM; in series [6] it was 0.76 µM.

Regarding `O=C1CSC(=S)N1CN1CCOCC1` [Compound 10, 3-morpholinomethyl-2-thioxo-4-thiazolidinone], the 50% inhibitory concentration (IC50) in the series on A549 cells is 36.4 µM.

As for `CSC1NC(=O)CS1` (stereo not shown) [Compound 11, 2-methylmercapto-4-thiazolidinone], the melting point fell in the range of 72 to 74 °C.

As to `CC(=O)OCC1OC(SC2=NC(=O)C(=Cc3ccccc3)S2)C(OC(C)=O)C(OC(C)=O)C1OC(C)=O` [Compound 13a, 5-((Z)-benzylidene)-2–(2',3',4',6'-tetra-O-acetyl-β-D-glucopyranosyl)-2-thioxo-4-thiazolidinone], the melting point was 166 to 168 °C. For the same compound, at Topoisomerase II, the IC50 was 8.3 µM. Moreover, the IC50 in the series with A549 cells came to 6.1 µM. Besides, the IC50 in the series on MCF-7 cells was determined as 3.1 µM. Besides, the IC50 with Calfthymus DNA came to 22.6 µM. Besides, the IC50 in the series with HepG2 cells [1] turned out to be 17.2 µM.

In the case of `CC(=O)OCC1OC(SC2=NC(=O)C(=Cc3ccc(Cl)cc3Cl)S2)C(OC(C)=O)C(OC(C)=O)C1OC(C)=O` [Compound 13b, 5-((Z)-2,4-dichlorobenzylidene)-2–(2',3',4',6'-tetra-O-acetyl-β-D-glucopyranosyl)-2-thioxo-4-thiazolidinone], the melting point is 167 to 169 °C. Besides, the IC50 with A549 cells is 10.1 µM. Further, the concentration for half-maximal inhibition (IC50) in the series on MCF-7 cells is 13.1 µM. In addition, in the series on HepG2 cells [1], the IC50 was determined as 7.2 µM.

Consider `CC(=O)OC[C@H]1O[C@@H](SC2=NC(=O)/C(=C/c3ccc4c(c3)OCCO4)S2)[C@H](OC(C)=O)[C@@H](OC(C)=O)[C@@H]1OC(C)=O` [Compound 13c, 5-((Z)-2,4-ethylenedioxybenzylidene)-2–(2',3',4',6'-tetra-O-acetyl-β-D-glucopyranosyl)-2-thioxo-4-thiazolidinone], for which the results for the half-maximal inhibitory concentration (IC50) in the series on A549 cells and in the series on HepG2 cells [1] were 4.1 µM and 21.2 µM, respectively.

On to `O=C1NC(=O)/C(=C/c2ccc(Cl)cc2Cl)S1` [Compound 14, 5-((Z)-2,4-dichlorobenzylidene)-2,4-thiazolidindione], for which the half-inhibitory concentration (IC50) in the series with A549 cells turned out to be 31.6 µM; with MCF-7 cells, 42.2 µM; with HepG2 cells [1], 37.3 µM.

For the compound `COc1cccc2c1C(=O)c1c(O)c3c(c(O)c1C2=O)C[C@@](O)(C(=O)CO)C[C@@H]3O[C@H]1C[C@H](N)[C@H](O)[C@H](C)O1` [Doxorubicin, reference compound], the results for the concentration for half-maximal inhibition (IC50) with A549 cells, with MCF-7 cells and in the series on Calfthymus DNA were 6.62 µM, 7.67 µM and 31.3 µM, respectively.
